The values below come from patent US6903130B1, “Pyrrolidineacetamide derivative alone or in combination for treatment of cns disorders” (UCB S.A., priority 1999, dated 2005).

One data set deals with amygdala-kindled rats. Briefly: Rotarod test in amygdala-kindled rats. As for the experimental part: Levetiracetam and valproate, in a dose-volume of 5 ml/kg body weight, were administered intraperitoneally 60 and 30 minutes, respectively, before the induction of kindling or the measurement of rotarod performance. Levetiracetam ([…]) and sodium valproate (50, 100, 150, 200 and 300 mg/kg) were both dissolved in 0.9% NaCl to give solutions of pH 5.9 and 6.3, respectively. Control rats received an equivalent dose-volume of the appropriate vehicle.
The amygdala-kindled rats (n=8) were also tested on a rotating rod. The animals were pretreated with i.p. administrations of levetiracetam and valproate 60 and 30 minutes, respectively, before testing, Only animals that were unable to remain on the rod after three subsequent 1-minute attempts were considered as having an impaired performance. Results were analyzed as described in example 1.

The test system of another data set is sound-sensitive mice. The experiment in a line: Audiogenic seizure testing, protection against clonic convulsions. The class given is in vivo, mouse. To be noted: for ED50: Mus musculus, ip, read-out: ED50, protection against audiogenic-induced clonic convulsions. From the text:
The purpose of this study was to evaluate the effect of levetiracetam on the anticonvulsivant potency of valproate in sound sensitive mice, a genetic animal model with reflex seizures. In this model of generalized epilepsy, seizures can be evoked without electrical or chemical stimulation and seizure types, at least in part, are similar in their clinical phenomenology to seizures occurring in man (Löscher W. & Schmidt D., Epilepsy Res. (1988), 2, 145-181; Buchhalter J. R., Epilepsia (1993), 34, S31-S41).
The experimental design consisted of one group receiving vehicles, another group receiving levetiracetam alone at a dose of 5.5 mg/kg and the other groups receiving different doses of valproate alone or in combination with levetiracetam. Levetiracetam alone was also tested. […] Levetiracetam and sodium valproate were both dissolved in 0.9% saline solution, to give solutions of pH 6.4 and 6.2, respectively.
The proportion of mice protected against clonic convulsions was calculated and used as the end point for the anticonvulsant activity.
Methods used for calculation and statistical analysis are described hereafter: • A response to drug treatment was expressed as the proportion of animals protected against induced convulsions, or showing an impairment of the rotarod performance, at each individual dose. […] From these formulations, the dose of valproate, considered as expected value, that should be associated to a constant dose of levetiracetam in order to afford 50% of protection, may be calculated as: [formula] for the additive model [formula] for the independent model.
These calculated doses (Vm50 expected) may then be compared to the observed doses of valproate which, in combination with a constant dose of levetiracetam, induce an effect corresponding to 50% protection (Vm50 observed). […]

The subject of data set [1] is chloride fluxes induced by muscimol. To be noted: cited from earlier work.
For data set [2], the system named is 55 different binding sites including different receptor systems, reuptake sites, second messenger systems and channel proteins. To be noted: in vitro; cited from earlier work.
Data set [3] has as its system GABA levels, GABA transaminase and glutamic decarboxylase. The conditions noted are these: mouse brain; cited from earlier work.

Read-outs that look alike come from different tables or passages of the source.

In general, ED50 refers to the dose at which the effect has come halfway, by size or by number of responders. Regarding `CCCC(CCC)C(=O)[O-].[Na+]` [Valproate, sodium valproate], the “Impairment in the performance within the rotarod test” value in the data set on amygdala-kindled rats (valproate 197 mg/kg + saline (treatment protecting 50% of the rats)) came out at 46%. Moreover, the ED50 in the data set with sound-sensitive mice (compound alone, i.p., LOGIT-LOG DOSE regression) was 122 mg/kg.
Consider `CC[C@@H](C(N)=O)N1CCCC1=O` [Levetiracetam, (S)-(−)α-ethyl-2-oxo-1-pyrrolidineacetamide], for which the “modulation of chloride fluxes induced by muscimol” value in data set [1] is on record as “did not modulate”. The “impairment of rotarod performance (in words)” value in the data set on amygdala-kindled rats (levetiracetam alone 108, 170 and 540 mg/kg i.p.) is “None of the three doses of levetiracetam tested (108, 170 and 540 mg/kg) impaired the performance”. Besides, the “displacement of ligands specific for 55 different binding sites” value in data set [2] was “not revealed any significant displacement”. In data set [3], the “effect on GABA levels and the enzymatic activities of GABA transaminase and glutamic decarboxylase” value was “lack of effect”. The ED50 in the data set on sound-sensitive mice is 10 mg/kg. In addition, the “animals protected against audiogenic-induced clonic convulsions” value in the data set with sound-sensitive mice (levetiracetam 5.5 mg/kg i.p. alone, inferred from dose-response relation) is reported as 20%.
